Measured values from patent publication US20230365546A1, “5-SUBSTITUTED INDOLE 3-AMIDE DERIVATIVES, PREPARATION METHOD AND USE THEREOF” (ORIGIANT PHARMACEUTICAL CO., LTD, priority 2020, published 2023).

What was measured:
Test in all cases: Kinase Profiler 10 μM panel
ZAK(h) = ZAK(h) (Homo sapiens (Human), UniProt Q9NYL2)
Description: (§1) In vitro kinase assays were conducted using Kinase Profiler services provided by Eurofins. The experimental method was as follows: the small molecule compound to be tested (0.001-10 μM), the protein kinase to be tested were incubated with a buffer containing substrate, 10 mM magnesium acetate, and [γ-^33P-ATP], the reaction was started by adding Mg\TPmix, after incubation for a period of time at room temperature, a 3% phosphate solution was added to the buffer to stop the reaction. Subsequently, 10 μL of the reaction mixture was quantitatively pipetted onto P30 filter paper, which was washed three times with 75 mM phosphate solution and then once with methanol. The P30 filter paper was air-dried and scintillation fluid was added for scintillation counting.

MAPK2(m) = MAPK2(m) (Mus musculus (Mouse), UniProt P63085)
Description: as §1

ZIPK(h) = ZIPK(h) (Homo sapiens (Human), UniProt O43293)
Description: as §1

VRK1(h) = VRK1(h) (Homo sapiens (Human), UniProt Q99986)
Description: as §1

CDK2/cyclinA(h) = CDK2/cyclinA(h) (Homo sapiens (Human), UniProt P24941)
Description: as §1

MAPKAP-K3(h) = MAPKAP-K3(h) (Homo sapiens (Human), UniProt Q16644)
Description: as §1

PKCβII(h) = PKCβII(h) (Homo sapiens (Human), UniProt P05771)
Description: as §1

Abl(h) = Abl(h) (Homo sapiens (Human), UniProt P00519)
Description: as §1

CDKL4(h) = CDKL4(h) (Homo sapiens (Human), UniProt Q5MAI5)
Chain of CDKL4(h) (Q5MAI5 whole entry): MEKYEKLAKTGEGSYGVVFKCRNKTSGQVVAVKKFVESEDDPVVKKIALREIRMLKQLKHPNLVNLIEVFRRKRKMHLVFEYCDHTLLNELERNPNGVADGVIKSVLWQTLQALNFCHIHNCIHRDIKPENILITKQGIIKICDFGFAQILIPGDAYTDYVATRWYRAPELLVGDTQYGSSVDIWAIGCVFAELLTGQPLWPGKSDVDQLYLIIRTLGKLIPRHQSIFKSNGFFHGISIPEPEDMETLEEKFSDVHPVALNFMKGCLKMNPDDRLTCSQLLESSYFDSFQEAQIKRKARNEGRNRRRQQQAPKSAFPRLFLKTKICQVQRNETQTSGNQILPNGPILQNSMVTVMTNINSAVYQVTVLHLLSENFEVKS
Description: as §1

RIPK2(h) = RIPK2(h) (Homo sapiens (Human), UniProt O43353)
Description: as §1

HIPK2(h) = HIPK2(h) (Homo sapiens (Human), UniProt Q9H2X6)
Description: as §1

CaMKI(h) = CaMKI(h) (Homo sapiens (Human), UniProt Q14012)
Description: as §1

MINK(h) = MINK(h) (Homo sapiens (Human), UniProt Q8N4C8)
Chain of MINK(h) (Q8N4C8 whole entry): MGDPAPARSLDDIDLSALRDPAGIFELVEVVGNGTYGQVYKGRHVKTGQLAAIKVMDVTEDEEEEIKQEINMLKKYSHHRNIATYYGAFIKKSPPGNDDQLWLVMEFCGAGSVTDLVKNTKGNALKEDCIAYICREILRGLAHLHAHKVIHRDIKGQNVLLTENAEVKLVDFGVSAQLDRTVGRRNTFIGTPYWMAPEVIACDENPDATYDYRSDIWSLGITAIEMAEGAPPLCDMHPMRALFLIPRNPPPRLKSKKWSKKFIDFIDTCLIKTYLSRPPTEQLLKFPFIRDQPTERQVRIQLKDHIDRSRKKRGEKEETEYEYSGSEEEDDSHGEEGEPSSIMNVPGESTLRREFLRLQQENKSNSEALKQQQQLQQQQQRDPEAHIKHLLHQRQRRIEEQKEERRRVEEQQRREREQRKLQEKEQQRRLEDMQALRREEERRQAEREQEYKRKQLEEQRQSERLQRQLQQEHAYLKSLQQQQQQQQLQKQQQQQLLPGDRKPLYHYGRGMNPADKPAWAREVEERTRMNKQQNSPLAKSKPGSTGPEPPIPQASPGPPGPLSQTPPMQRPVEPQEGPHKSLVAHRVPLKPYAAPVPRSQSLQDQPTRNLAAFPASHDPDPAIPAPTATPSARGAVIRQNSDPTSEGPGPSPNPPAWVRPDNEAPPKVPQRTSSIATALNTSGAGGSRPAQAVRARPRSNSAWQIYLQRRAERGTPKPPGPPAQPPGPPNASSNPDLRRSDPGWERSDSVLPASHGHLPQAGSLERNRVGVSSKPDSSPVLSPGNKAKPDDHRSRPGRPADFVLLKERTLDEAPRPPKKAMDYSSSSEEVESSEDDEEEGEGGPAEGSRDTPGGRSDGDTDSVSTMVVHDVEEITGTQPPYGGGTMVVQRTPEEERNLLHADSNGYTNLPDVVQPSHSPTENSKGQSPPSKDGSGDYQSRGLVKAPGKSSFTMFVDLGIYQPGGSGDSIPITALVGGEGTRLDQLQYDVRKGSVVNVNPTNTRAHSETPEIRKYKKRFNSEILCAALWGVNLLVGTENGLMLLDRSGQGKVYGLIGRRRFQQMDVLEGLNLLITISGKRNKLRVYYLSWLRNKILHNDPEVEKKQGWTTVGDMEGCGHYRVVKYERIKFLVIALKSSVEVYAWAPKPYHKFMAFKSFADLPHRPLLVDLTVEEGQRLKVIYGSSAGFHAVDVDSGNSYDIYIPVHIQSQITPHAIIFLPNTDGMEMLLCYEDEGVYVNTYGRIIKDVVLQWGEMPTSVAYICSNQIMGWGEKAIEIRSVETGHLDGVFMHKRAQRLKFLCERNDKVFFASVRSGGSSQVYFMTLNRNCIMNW
Description: as §1

Plk4(h) = Plk4(h) (Homo sapiens (Human), UniProt O00444)
Description: as §1

Fer(h) = Fer(h) (Homo sapiens (Human), UniProt P16591)
Description: as §1

CDKL2(h) = CDKL2(h) (Homo sapiens (Human), UniProt Q92772)
Chain of CDKL2(h) (Q92772 whole entry): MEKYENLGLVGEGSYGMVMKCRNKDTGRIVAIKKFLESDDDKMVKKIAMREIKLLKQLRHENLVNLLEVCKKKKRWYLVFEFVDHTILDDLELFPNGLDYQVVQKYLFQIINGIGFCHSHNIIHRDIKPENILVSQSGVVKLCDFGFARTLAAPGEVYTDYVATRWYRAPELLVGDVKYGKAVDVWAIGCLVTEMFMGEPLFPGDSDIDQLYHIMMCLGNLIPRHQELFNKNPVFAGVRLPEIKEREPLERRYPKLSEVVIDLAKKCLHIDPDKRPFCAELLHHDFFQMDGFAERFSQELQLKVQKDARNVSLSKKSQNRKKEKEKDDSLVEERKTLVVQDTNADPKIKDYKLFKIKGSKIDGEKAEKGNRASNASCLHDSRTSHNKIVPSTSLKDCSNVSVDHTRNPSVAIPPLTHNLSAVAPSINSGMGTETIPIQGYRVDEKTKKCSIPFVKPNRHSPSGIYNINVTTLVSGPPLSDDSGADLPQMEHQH
Description: as §1

ALK6(h) = ALK6(h) (Homo sapiens (Human), UniProt O00238)
Chain of ALK6(h) (O00238 14-502): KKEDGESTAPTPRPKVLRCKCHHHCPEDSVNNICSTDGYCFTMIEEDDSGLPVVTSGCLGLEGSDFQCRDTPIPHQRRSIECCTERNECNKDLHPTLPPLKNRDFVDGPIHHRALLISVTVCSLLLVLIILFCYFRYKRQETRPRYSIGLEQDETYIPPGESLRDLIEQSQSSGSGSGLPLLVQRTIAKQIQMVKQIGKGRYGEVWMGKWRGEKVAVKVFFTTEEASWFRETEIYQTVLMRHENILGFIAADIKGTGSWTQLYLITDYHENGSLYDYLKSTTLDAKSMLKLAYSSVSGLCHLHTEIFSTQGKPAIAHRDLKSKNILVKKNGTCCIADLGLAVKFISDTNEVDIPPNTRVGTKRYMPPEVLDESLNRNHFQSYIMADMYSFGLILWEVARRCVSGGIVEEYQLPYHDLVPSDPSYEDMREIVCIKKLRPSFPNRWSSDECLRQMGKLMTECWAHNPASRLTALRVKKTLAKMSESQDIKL
Description: as §1

TTBK2(h) = TTBK2(h) (Homo sapiens (Human), UniProt Q6IQ55)
Description: as §1

CDK9/cyclin T1(h) = CDK9/cyclin T1(h) (Homo sapiens (Human), UniProt P50750)
Description: as §1

Met(M1268T)(h) = Met(M1268T)(h) (Homo sapiens (Human), UniProt P08581, M1250T)
Chain of Met(M1268T)(h) (P08581 956-1390 M1250T limits assumed): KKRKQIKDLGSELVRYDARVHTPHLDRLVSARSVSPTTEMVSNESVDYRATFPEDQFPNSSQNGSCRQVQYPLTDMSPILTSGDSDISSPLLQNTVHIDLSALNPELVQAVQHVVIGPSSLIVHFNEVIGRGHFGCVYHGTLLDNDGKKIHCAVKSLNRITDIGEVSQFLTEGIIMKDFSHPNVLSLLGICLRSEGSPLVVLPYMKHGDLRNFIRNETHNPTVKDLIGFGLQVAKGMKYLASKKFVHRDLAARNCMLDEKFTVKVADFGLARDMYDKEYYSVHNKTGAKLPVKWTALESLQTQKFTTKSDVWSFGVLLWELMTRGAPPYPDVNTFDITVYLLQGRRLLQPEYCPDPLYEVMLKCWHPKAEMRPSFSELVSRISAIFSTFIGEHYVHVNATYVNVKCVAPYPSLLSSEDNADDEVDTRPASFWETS
Description: as §1

Abl(T315I)(h) = Abl(T315I)(h) (Homo sapiens (Human), UniProt P00519, T315I)
Description: as §1

PDGFRα(D842V)(h) = PDGFRα(D842V)(h) (Homo sapiens (Human), UniProt P16234, D842V)
Chain of PDGFRα(D842V)(h) (P16234 24-1089 D842V): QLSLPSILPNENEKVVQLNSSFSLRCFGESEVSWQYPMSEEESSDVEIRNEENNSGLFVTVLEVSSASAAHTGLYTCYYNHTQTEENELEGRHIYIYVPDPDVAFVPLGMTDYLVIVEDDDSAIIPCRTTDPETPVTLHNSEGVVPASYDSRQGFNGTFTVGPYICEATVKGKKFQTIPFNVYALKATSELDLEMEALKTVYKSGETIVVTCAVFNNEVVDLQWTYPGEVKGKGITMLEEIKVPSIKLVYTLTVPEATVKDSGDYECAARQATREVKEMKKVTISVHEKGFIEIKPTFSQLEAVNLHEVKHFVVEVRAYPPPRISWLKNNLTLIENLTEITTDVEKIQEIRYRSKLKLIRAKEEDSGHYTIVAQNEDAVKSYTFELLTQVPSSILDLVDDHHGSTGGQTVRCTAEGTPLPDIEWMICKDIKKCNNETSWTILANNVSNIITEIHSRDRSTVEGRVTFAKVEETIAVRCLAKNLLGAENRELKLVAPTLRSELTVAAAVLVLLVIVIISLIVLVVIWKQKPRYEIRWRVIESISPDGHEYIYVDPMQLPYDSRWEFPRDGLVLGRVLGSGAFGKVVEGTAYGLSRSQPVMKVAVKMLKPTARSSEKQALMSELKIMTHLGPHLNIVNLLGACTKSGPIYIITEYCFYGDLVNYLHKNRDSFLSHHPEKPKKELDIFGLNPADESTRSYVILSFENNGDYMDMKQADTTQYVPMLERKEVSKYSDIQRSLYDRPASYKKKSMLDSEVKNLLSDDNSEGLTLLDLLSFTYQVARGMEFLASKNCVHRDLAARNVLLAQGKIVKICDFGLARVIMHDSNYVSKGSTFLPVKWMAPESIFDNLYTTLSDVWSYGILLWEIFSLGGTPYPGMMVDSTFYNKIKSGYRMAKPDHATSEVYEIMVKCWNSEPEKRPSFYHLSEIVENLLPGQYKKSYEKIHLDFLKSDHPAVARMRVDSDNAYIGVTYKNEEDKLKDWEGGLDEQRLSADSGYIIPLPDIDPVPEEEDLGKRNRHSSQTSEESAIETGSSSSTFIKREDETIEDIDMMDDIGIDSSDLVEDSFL
Description: as §1

TSSK4(h) = TSSK4(h) (Homo sapiens (Human), UniProt Q6SA08)
Description: as §1

WNK4(h) = WNK4(h) (Homo sapiens (Human), UniProt Q96J92)
Description: as §1

GCN2(h) = GCN2(h) (Homo sapiens (Human), UniProt Q9P2K8)
Description: as §1

PAK1(h) = PAK1(h) (Homo sapiens (Human), UniProt Q13153)
Description: as §1

DAPK2(h) = DAPK2(h) (Homo sapiens (Human), UniProt Q9UIK4)
Description: as §1

IKKϵ(h) = IKKϵ(h) (Homo sapiens (Human), UniProt Q14164)
Description: as §1

PIP5K1a(h) = PIP5K1a(h) (Homo sapiens (Human), UniProt Q99755)
Description: as §1

MLK1(h) = MLK1(h) (Homo sapiens (Human), UniProt P80192)
Description: as §1

Itk(h) = Itk(h) (Homo sapiens (Human), UniProt Q08881)
Description: as §1

MST2(h) = MST2(h) (Homo sapiens (Human), UniProt Q13188)
Description: as §1

GRK7(h) = GRK7(h) (Homo sapiens (Human), UniProt Q8WTQ7)
Description: as §1

Blk(h) = Blk(h) (Homo sapiens (Human), UniProt P51451)
Description: as §1

Chain of MAPK2(m) (P63085 whole entry): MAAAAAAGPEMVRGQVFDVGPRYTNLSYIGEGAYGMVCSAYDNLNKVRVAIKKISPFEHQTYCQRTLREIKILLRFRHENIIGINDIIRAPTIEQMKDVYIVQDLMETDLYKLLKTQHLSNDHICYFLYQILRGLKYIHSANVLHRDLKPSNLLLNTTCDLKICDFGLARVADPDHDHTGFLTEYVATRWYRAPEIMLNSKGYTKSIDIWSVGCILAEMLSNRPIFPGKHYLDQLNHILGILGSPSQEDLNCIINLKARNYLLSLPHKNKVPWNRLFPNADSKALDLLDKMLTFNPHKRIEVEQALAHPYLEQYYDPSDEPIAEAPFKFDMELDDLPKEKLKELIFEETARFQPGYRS
Chain of VRK1(h) (Q99986 whole entry): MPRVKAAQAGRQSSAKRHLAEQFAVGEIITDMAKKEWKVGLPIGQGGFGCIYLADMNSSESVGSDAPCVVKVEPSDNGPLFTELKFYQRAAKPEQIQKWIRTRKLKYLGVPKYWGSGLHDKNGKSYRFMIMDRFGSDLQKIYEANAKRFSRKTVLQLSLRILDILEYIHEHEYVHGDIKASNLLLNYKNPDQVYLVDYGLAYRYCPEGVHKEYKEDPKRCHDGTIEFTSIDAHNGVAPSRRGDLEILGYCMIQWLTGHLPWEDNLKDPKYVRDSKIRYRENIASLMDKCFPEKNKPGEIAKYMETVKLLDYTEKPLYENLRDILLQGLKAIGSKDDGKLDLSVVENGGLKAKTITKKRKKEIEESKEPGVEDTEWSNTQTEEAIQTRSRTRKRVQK

With `C[C@H](NC(=O)c1c[nH]c2ccc(-c3ccc4nc(NC(=O)C5CC5)sc4c3)cc12)c1cccc(F)c1` [Compound 34, (S)-5-(2-(cyclopropanecarboxamido)benzo[d]thiazol-6-yl)-N-(1-(3-fluorophenyl)ethyl)-1H-indole-3-carboxamide] the Inhibition ratio (ZAK(h)) was 67%, the Inhibition ratio (MAPK2(m)) was 12% and the Inhibition ratio (ZIPK(h)) was −4%. For the same compound, the Inhibition ratio (VRK1(h)) was 2%, the Inhibition ratio (CDK2/cyclinA(h)) was 11% and the Inhibition ratio (MAPKAP-K3(h)) was −1%. For the same compound, the Inhibition ratio (PKCβII(h)) was 7%, the Inhibition ratio (Abl(h)) was 102% and the Inhibition ratio (CDKL4(h)) was 56%. The Inhibition ratio (RIPK2(h)) was 67%, the Inhibition ratio (HIPK2(h)) was 66% and the Inhibition ratio (CaMKI(h)) was 5%. For the same compound, the Inhibition ratio (MINK(h)) was 93%, the Inhibition ratio (Plk4(h)) was 14% and the Inhibition ratio (Fer(h)) was 62%. The Inhibition ratio (CDKL2(h)) was 68%, the Inhibition ratio (ALK6(h)) was −4% and the Inhibition ratio (TTBK2(h)) was 8%. For the same compound, the Inhibition ratio (CDK9/cyclin T1(h)) was 41%, the Inhibition ratio (Met(M1268T)(h)) was 93% and the Inhibition ratio (Abl(T315I)(h)) was 101%. For the same compound, the Inhibition ratio (PDGFRα(D842V)(h)) was 56%, the Inhibition ratio (TSSK4(h)) was 13% and the Inhibition ratio (WNK4(h)) was 17%. It also gave an Inhibition ratio (GCN2(h)) of 14%, an Inhibition ratio (PAK1(h)) of 4% and an Inhibition ratio (DAPK2(h)) of 13%. The Inhibition ratio (IKKϵ(h)) was 19%, the Inhibition ratio (PIP5K1a(h)) was 21% and the Inhibition ratio (MLK1(h)) was 98%. The Inhibition ratio (Itk(h)) was 99%, the Inhibition ratio (MST2(h)) was −9% and the Inhibition ratio (GRK7(h)) was 4%. It also gave an Inhibition ratio (Blk(h)) of 65%.
`C[C@H](NC(=O)c1cn(C)c2ccc(-c3ccn4nc(NC(=O)C5CC5)nc4c3)cc12)c1cccc(F)c1` [Compound 94, (S)-5-(2-(cyclopropanecarboxamido)-[1,2,4]triazolo[1,5-a]pyridin-7-yl)-N-(1-(3-fluorophenyl)ethyl)-1-methyl-1H-indole-3-carboxamide] showed an Inhibition ratio/% (ZAK(h)) of 59%, an Inhibition ratio/% (MAPK2(m)) of 33% and an Inhibition ratio/% (ZIPK(h)) of 6%. It also gave an Inhibition ratio/% (VRK1(h)) of 46%, an Inhibition ratio/% (CDK2/cyclinA(h)) of 24% and an Inhibition ratio/% (MAPKAP-K3(h)) of −12%. It also gave an Inhibition ratio/% (PKCβII(h)) of 10%, an Inhibition ratio/% (Abl(h)) of 32% and an Inhibition ratio/% (CDKL4(h)) of 76%. For the same compound, the Inhibition ratio/% (RIPK2(h)) was −7%, the Inhibition ratio/% (HIPK2(h)) was 36% and the Inhibition ratio/% (CaMKI(h)) was 49%. For the same compound, the Inhibition ratio/% (MINK(h)) was 53%, the Inhibition ratio/% (Plk4(h)) was 15% and the Inhibition ratio/% (Fer(h)) was 10%. It also gave an Inhibition ratio/% (CDKL2(h)) of 62%, an Inhibition ratio/% (ALK6(h)) of −5% and an Inhibition ratio/% (TTBK2(h)) of −16%. For the same compound, the Inhibition ratio/% (CDK9/cyclin T1(h)) was 61%, the Inhibition ratio/% (Met(M1268T)(h)) was −10% and the Inhibition ratio/% (Abl(T315I)(h)) was 33%. The Inhibition ratio/% (PDGFRα(D842V)(h)) was 37%, the Inhibition ratio/% (TSSK4(h)) was 49% and the Inhibition ratio/% (WNK4(h)) was 48%. For the same compound, the Inhibition ratio/% (GCN2(h)) was 23%, the Inhibition ratio/% (PAK1(h)) was 18% and the Inhibition ratio/% (DAPK2(h)) was 3%. The Inhibition ratio/% (IKKϵ(h)) was −15%, the Inhibition ratio/% (PIP5K1a(h)) was 16% and the Inhibition ratio/% (MLK1(h)) was 94%. The Inhibition ratio/% (Itk(h)) was 92%, the Inhibition ratio/% (MST2(h)) was −14% and the Inhibition ratio/% (GRK7(h)) was −16%. It also gave an Inhibition ratio/% (Blk(h)) of 65%.
